Experimental data: patent US12590091B2, “1H-pyrrolo[3,2-C]pyridine and 1H-pyrrolo[2,3-C]pyridine derivatives as TLR9 inhibitors for the treatment of fibrosis” (BRISTOL-MYERS SQUIBB COMPANY, priority 2020, dated 2026)

Columns and labels:
human TLR8 = target: T1, human TLR8 (Homo sapiens, UniProt Q9NR97); assay: TLR8 inhibition reporter assay (HEK-Blue cells, SEAP reporter); assay type: cell-based; conditions: HEK-Blue cells overexpressing human TLR8, stimulated with R848 15.9 μM, 22 hour incubation
T1 construct: host or cells: HEK-Blue cells
T1 sequence (Q9NR97 27-1041): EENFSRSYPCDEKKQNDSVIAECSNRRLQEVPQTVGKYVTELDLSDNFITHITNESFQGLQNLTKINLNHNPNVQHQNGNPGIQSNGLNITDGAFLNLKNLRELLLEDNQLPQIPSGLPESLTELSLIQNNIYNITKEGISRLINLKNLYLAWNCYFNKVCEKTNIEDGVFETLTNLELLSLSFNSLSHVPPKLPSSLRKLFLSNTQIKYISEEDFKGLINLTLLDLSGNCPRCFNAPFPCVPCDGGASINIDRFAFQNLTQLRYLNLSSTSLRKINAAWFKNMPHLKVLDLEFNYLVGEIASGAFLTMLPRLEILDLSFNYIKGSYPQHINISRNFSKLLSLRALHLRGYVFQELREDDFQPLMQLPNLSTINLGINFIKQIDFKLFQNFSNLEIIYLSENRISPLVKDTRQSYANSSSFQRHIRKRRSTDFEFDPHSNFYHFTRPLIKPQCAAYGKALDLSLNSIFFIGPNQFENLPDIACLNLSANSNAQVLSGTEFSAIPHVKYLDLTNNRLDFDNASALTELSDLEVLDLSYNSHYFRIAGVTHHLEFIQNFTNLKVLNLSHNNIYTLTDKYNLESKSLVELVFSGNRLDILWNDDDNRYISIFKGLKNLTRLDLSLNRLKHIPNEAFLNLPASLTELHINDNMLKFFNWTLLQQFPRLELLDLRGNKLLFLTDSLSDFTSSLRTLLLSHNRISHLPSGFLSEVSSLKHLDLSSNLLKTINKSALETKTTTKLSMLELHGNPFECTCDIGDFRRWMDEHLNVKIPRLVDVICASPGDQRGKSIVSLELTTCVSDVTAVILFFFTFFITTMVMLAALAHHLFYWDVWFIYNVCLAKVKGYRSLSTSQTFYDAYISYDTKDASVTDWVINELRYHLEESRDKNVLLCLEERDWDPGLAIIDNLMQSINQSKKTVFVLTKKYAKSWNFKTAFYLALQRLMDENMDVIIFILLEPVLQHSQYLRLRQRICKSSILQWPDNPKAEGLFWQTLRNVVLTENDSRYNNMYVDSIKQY
Description: TLR7/8/9 Inhibition Reporter Assays
HEK-Blue™-cells (Invivogen) overexpressing human TLR7, TLR8 or TLR9 receptors were used for screening inhibitors of these receptors using an inducible SEAP (secreted embryonic alkaline phosphatase) reporter gene under the control of the IFN-β minimal promoter fused to five NF-κB and AP-1-binding sites. Briefly, cells are seeded into Greiner 384 well plates (15000 cells per well for TLR7, 20,000 for TLR8 and 25,000 for TLR9) and then treated with test compounds in DMSO to yield a final dose response concentration range of 0.05 nM-50 μM. After a 30 minute compound pre-treatment at room temperature, the cells are then stimulated with a TLR7 ligand (gardiquimod at a final concentration of 7.5 μM), TLR8 ligand (R848 at a final concentration of 15.9 μM) or TLR9 ligand (ODN2006 at a final concentration of 5 nM) to activate NF-κB and AP-1 which induce the production of SEAP. After a 22 hour incubation at 37° C., 5% CO2, SEAP levels are determined with the addition of HEK-Blue™ Detection reagent (Invivogen), a cell culture medium that allows for detection of SEAP, according to manufacturer's specifications. The percent inhibition is determined as the % reduction in the HEK-Blue signal present in wells treated with agonist plus DMSO alone compared to wells treated with a known inhibitor.

human TLR9 = target: T2, human TLR9 (Homo sapiens, UniProt Q9NR96); assay: TLR9 inhibition reporter assay (HEK-Blue cells, SEAP reporter); assay type: cell-based; conditions: HEK-Blue cells overexpressing human TLR9, stimulated with ODN2006 5 nM, 22 hour incubation
T2 construct: host or cells: HEK-Blue cells
T2 sequence (Q9NR96 26-1032): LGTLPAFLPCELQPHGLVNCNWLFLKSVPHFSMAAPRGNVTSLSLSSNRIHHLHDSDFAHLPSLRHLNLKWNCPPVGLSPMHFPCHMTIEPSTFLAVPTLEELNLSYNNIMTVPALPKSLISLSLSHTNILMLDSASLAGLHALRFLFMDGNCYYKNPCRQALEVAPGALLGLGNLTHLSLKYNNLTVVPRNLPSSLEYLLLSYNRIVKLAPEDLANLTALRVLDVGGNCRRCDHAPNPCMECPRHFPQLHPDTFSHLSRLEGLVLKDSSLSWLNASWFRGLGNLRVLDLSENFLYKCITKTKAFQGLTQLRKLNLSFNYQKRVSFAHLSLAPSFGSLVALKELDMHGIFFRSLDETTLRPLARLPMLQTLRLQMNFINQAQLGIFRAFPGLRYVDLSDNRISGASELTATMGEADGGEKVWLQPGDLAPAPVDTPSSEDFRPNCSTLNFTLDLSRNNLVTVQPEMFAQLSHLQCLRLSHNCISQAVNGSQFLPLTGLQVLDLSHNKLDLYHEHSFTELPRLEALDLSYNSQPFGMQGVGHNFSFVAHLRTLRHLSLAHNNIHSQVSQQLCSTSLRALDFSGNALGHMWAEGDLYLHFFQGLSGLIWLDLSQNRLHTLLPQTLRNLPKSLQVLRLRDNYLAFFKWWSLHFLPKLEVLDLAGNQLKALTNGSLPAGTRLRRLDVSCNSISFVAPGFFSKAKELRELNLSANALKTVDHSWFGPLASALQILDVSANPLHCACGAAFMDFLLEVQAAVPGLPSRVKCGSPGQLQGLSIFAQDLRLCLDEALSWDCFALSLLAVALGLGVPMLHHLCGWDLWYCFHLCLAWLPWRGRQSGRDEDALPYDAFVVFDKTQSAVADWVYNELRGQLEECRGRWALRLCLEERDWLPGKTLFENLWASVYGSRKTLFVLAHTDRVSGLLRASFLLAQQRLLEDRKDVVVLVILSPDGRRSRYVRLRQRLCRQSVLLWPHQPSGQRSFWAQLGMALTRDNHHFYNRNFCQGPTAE
Summary of the method: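 HEK-Blue cells overexpressing human TLR9 (25,000 cells/well), NF-κB/AP-1-driven SEAP reporter. Compounds at 0.05 nM–50 μM final, 22 h at 37 °C, 5% CO2 with agonist. SEAP detected with HEK-Blue Detection medium; % inhibition versus agonist plus DMSO and known-inhibitor wells.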

Structure (SMILES)	IC50 (human TLR8) [µM]	IC50 (human TLR9) [nM]
COc1ccc(-c2c(C)[nH]c3cnc(C4CCN(C(=O)CN(C)C)CC4)cc23)cc1OC [Example 22, 1-(4-(3-(3,4-dimethoxyphenyl)-2-methyl-1H-pyrrolo[2,3-c]pyridin-5-yl)piperidin-1-yl)-2-(dimethylamino)ethan-1-one]	> 50	1570
COc1ccc(-c2c(C)[nH]c3cnc(C4CCN(C(=O)CCN5CCCC5)CC4)cc23)cc1OC [Example 23, 1-(4-(3-(3,4-dimethoxyphenyl)-2-methyl-1H-pyrrolo[2,3-c]pyridin-5-yl)piperidin-1-yl)-3-(pyrrolidin-1-yl)propan-1-one]	> 50	1110
COc1ccc(-c2cc3cnc(-c4ccc(N5CCN(C(C)C)CC5)cc4)cc3n2C)cc1OC [Example 24, 2-(3,4-dimethoxyphenyl)-6-(4-(4-isopropylpiperazin-1-yl)phenyl)-1-methyl-1H-pyrrolo[3,2-c]pyridine]	3.8	59
COc1ccc(-c2cc3cnc(C4CCN(C(=O)CN5CCCCC5)CC4)cc3n2C)cc1OC [Example 25, 1-(4-(2-(3,4-dimethoxyphenyl)-1-methyl-1H-pyrrolo[3,2-c]pyridin-6-yl)piperidin-1-yl)-2-(piperidin-1-yl)ethan-1-one]	> 50	197
COc1ccc(-c2cc3cnc(C4CCN(C5CCN(C(=O)c6ccccc6)CC5)CC4)cc3n2C)cc1OC [Example 26, (4-(2-(3,4-dimethoxyphenyl)-1-methyl-1H-pyrrolo[3,2-c]pyridin-6-yl)-[1,4′-bipiperidin]-1′-yl)(phenyl)methanone]	1.2	9
COc1ccc(-c2cc3cnc(-c4ccc(N5CCN(C)CC5)cc4)cc3n2C)cc1OC [Example 27, 2-(3,4-dimethoxyphenyl)-1-methyl-6-(4-(4-methylpiperazin-1-yl)phenyl)-1H-pyrrolo[3,2-c]pyridine]	1.5	45
COc1ccc(-c2cc3cnc(C4CCN(Cc5ccc(C(F)(F)F)nc5)CC4)cc3n2C)cc1OC [Example 28, 2-(3,4-dimethoxyphenyl)-1-methyl-6-(1-((6-(trifluoromethyl)pyridin-3-yl)methyl)piperidin-4-yl)-1H-pyrrolo[3,2-c]pyridine]	20.5	269
COc1ccc(-c2cc3cnc(-c4ccc(N5CCN(C(=O)c6ccccc6)CC5)cc4)cc3n2C)cc1OC [Example 29, (4-(4-(2-(3,4-dimethoxyphenyl)-1-methyl-1H-pyrrolo[3,2-c]pyridin-6-yl)phenyl)piperazin-1-yl)(phenyl)methanone]	8.2	399
COc1ccc(-c2cc3cnc(-c4ccc(N5CCN(C(C)C)CC5)nc4)cc3n2C)cc1OC [Example 31, 2-(3,4-dimethoxyphenyl)-6-(6-(4-isopropylpiperazin-1-yl)pyridin-3-yl)-1-methyl-1H-pyrrolo[3,2-c]pyridine]	1.7	72
COc1ccc(-c2c(C)n(C)c3cnc(-c4ccc(N5CCN(C(C)C)CC5)cc4)cc23)cc1OC [Example 32, 3-(3,4-dimethoxyphenyl)-5-(4-(4-isopropylpiperazin-1-yl)phenyl)-1,2-dimethyl-1H-pyrrolo[2,3-c]pyridine]	> 50	170

Continued, values first:

IC50 (human TLR8) [µM]	IC50 (human TLR9) [nM]	Structure (SMILES)
> 50	27	COc1ccc(-c2c(C)n(C)c3cnc(-c4ccc(N5CCN(CCC(C)(C)O)CC5)cc4)cc23)cc1OC [Example 33, 4-(4-(4-(3-(3,4-dimethoxyphenyl)-1,2-dimethyl-1H-pyrrolo[2,3-c]pyridin-5-yl)phenyl)piperazin-1-yl)-2-methylbutan-2-ol]
> 50	10	Cc1nc(-c2ccc(N3CCN(CC(C)C)CC3)cc2)cc2c1cc(-c1ccc(S(C)(=O)=O)cc1)n2C [Example 34, 6-(4-(4-isobutylpiperazin-1-yl)phenyl)-1,4-dimethyl-2-(4-(methylsulfonyl)phenyl)-1H-pyrrolo[3,2-c]pyridine]
> 25	710	Cc1nc(-c2ccc(N3CCN(C4CCOCC4)CC3)cc2)cc2c1cc(-c1ccc(S(C)(=O)=O)cc1)n2C [Example 35, 1,4-dimethyl-2-(4-(methylsulfonyl)phenyl)-6-(4-(4-(tetrahydro-2H-pyran-4-yl)piperazin-1-yl)phenyl)-1H-pyrrolo[3,2-c]pyridine]
> 25	59	Cc1nc(-c2ccc(N3CCN(CCCO)CC3)cc2)cc2c1cc(-c1ccc(S(C)(=O)=O)cc1)n2C [Example 36, 3-(4-(4-(1,4-dimethyl-2-(4-(methylsulfonyl)phenyl)-1H-pyrrolo[3,2-c]pyridin-6-yl)phenyl)piperazin-1-yl)propan-1-ol]
> 25	57	Cc1nc(-c2ccc(N3CCN(C4CCOC4)CC3)cc2)cc2c1cc(-c1ccc(S(C)(=O)=O)cc1)n2C (stereo not shown) [Example 37, 1,4-dimethyl-2-(4-(methylsulfonyl)phenyl)-6-(4-(4-(tetrahydrofuran-3-yl)piperazin-1-yl)phenyl)-1H-pyrrolo[3,2-c]pyridine]
11.8	56	COCCN1CCN(c2ccc(-c3cc4c(cc(-c5ccc(S(C)(=O)=O)cc5)n4C)c(C)n3)cc2)CC1 [Example 38, 6-(4-(4-(2-methoxyethyl)piperazin-1-yl)phenyl)-1,4-dimethyl-2-(4-(methylsulfonyl)phenyl)-1H-pyrrolo[3,2-c]pyridine]
> 16.7	236	Cc1nc(-c2ccc(C3CCN(CCCO)CC3)cc2)cc2c1cc(-c1ccc(S(C)(=O)=O)cc1)n2C [Example 41, 3-(4-(4-(1,4-Dimethyl-2-(4-(methylsulfonyl)phenyl)-1H-pyrrolo[3,2-c]pyridin-6-yl)phenyl)piperidin-1-yl)propan-1-ol]
